Active and inactive are the calls of the source. The calls are words filed in the database; no cut-off is given here.
Assays:
[1] = Antiproliferative activity against human HCT116 cells assessed as growth inhibition after 72 hrs by MTS assay; type: functional; conditions: HCT-116, 72 h
[2] = target: T1, Luciferin 4-monooxygenase (Luciola lateralis) (UniProt Q01158); test: Inhibition of recombinant firefly luciferase at 0.0001 to 100 uM by […] in presence of varying concentration of D-luciferin; conditions: Aquatica lateralis
T1 sequence (whole entry): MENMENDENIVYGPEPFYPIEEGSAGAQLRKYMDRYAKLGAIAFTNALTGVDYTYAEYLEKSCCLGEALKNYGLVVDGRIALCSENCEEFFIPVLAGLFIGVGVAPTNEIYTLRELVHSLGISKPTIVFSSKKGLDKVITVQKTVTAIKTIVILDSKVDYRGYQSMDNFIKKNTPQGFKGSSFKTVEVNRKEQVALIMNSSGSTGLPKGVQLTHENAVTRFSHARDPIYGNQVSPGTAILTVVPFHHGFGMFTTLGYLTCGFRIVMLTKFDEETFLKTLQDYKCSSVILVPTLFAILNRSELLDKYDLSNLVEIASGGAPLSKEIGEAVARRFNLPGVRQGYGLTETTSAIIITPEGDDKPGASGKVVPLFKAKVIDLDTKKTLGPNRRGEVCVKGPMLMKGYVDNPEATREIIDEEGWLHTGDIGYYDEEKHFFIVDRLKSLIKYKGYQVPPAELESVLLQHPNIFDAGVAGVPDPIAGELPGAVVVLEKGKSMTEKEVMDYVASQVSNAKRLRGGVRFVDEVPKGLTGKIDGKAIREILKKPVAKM

[3] = target: T1, Luciferin 4-monooxygenase (Luciola lateralis); test: Inhibition of recombinant firefly luciferase at 0.0001 to 100 uM by […] in presence of varying concentration of ATP; conditions: Aquatica lateralis
HeLa [4] = test: Induction of SV40 promoter-mediated luciferase gene expression in human HeLa cells at 10 to 100 uM after 24 hrs by RT-PCR analysis; type: cell-based; conditions: Betapolyomavirus macacae
HeLa [5] = test: Induction of SV40 promoter-mediated luciferase gene expression in human HeLa cells at 0.01 to 100 uM after 24 hrs by luminescence assay; type: cell-based; conditions: Betapolyomavirus macacae
HeLa [6] = test: Induction of SV40 promoter-mediated luciferase gene expression in human HeLa cells co-expressing SV40 enhancer at 0.01 to 100 uM after 24 hrs by luminescence assay; type: cell-based; conditions: Betapolyomavirus macacae
HeLa [7] = test: Growth inhibition of human HeLa cells at 0.01 to 100 uM after 24 hrs; type: cell-based
[8] = Stability of the compound by HPLC analysis; type: physicochemical
HeLa [9] = test: Induction of SV40 promoter-mediated luciferase gene expression in human HeLa cells after 24 hrs by RT-PCR analysis; type: cell-based; conditions: Betapolyomavirus macacae

Row | Structure (SMILES) | GI50 [1] [µM] | Activity (HeLa [5]) | Activity (HeLa [6]) | Activity (HeLa [7]) | further results
1 | CC(=O)/C=C/c1ccc2c(C(=O)C(F)(F)F)c[nH]c2c1 | 14 |  |  |  | 
2 | C=C(C)/C=C/c1ccc2c(CO)c[nH]c2c1 | 79 |  |  |  | 
3 | CC(C)CCc1ccc2c(C(=O)O)c[nH]c2c1 | > 500 |  |  |  | 
4 | C=C(C)/C=C/c1ccc2cc[nH]c2c1 | 147 |  |  |  | 
5 | Oc1ccc(/C=C/c2cc(O)cc(O)c2)cc1 |  |  |  |  | inhibition [2]: Active; inhibition [3]: Active; Activity (HeLa [4]): Active
6 | CC(O)/C=C/c1ccc2c(C(=O)C(F)(F)F)c[nH]c2c1 (stereo not given) | 8 | inactive | Active | Non-toxic | 
7 | CC(C)(O)/C=C/c1ccc2c(C(=O)C(F)(F)F)c[nH]c2c1 | > 500 |  |  |  | 
8 | C=C(C)/C=C/c1ccc2c(C(=O)C(F)(F)F)c[nH]c2c1 | 39 | inactive | Active | Non-toxic | Stability [8]: Stable; inhibition [2]: inactive; inhibition [3]: Active; Activity (HeLa [9]): Dose-dependent effect
9 | C=C(C)/C=C/c1ccc2c(C(=O)O)c[nH]c2c1 | 68 | inactive | Active | Non-toxic | 
10 | C=C(C)/C=C/c1ccc2c(C(=O)C(F)(F)F)cn(C)c2c1 | > 500 |  |  |  | 

Reference: ChEMBL document CHEMBL3351979, “Total Synthesis and Biological Studies of TMC-205 and Analogues as Anticancer Agents and Activators of SV40 Promoter” (ACS Med Chem Lett, 2014)
